{"source": "patent US20250072421A1", "about": "“ARYL DIHYDROPYRAN DERIVATIVE OR SALT THEREOF, PEST CONTROL AGENT CONTAINING SAME, AND METHOD FOR USE THEREOF” (ADEKA Corporation, priority 2021, published 2025)", "key": {"Plutella xylostella": {"tested_on": "Plutella xylostella", "assay": "Insecticidal test against Plutella xylostella", "details": "500 ppm drug solution, Chinese cabbage seedlings with eggs immersed about 30 sec, six days after immersion, 25° C."}, "Dirofilaria immitis": {"tested_on": "Dirofilaria immitis", "assay": "Influence evaluation test on the growth of Dirofilaria immitis", "format": "cell-based", "details": "168 h, read-out: development inhibition rate from the L3 stage larva to the L4-stage larva"}, "Laodelphax striatellus": {"tested_on": "Laodelphax striatellus", "assay": "Insecticidal test against Laodelphax striatellus", "details": "500 ppm drug solution, rice seedlings immersed 30 seconds, three-instar insects, eight days after inoculation"}, "[1]": {"tested_on": "Frankliniella occidentalis", "assay": "Insecticidal test against Frankliniella occidentalis", "details": "500 ppm drug solution sprayed on Phaseolus vulgaris leaf pieces with hatched larvae, four days after treatment"}}}
{"smiles": "O=C(Nc1ccc(F)cc1)C1=C(O)CC(c2ccc(C(F)(F)F)c(Cl)c2)OC1=O", "note": "(centres unmarked) [1-1, 6-(3-chloro-4-(trifluoromethyl)phenyl)-N-(4-fluorophenyl)-4-hydroxy-2-oxo-5,6-dihydro-2H-pyran-3-carboxamide]", "values": [{"measurement": "rating of assessment (corrected mortality) against Plutella xylostella", "setting": "Plutella xylostella", "value": "D or higher"}, {"measurement": "inhibition at 10 µM", "setting": "Dirofilaria immitis", "value": "≥ 50", "unit": "%"}]}
{"smiles": "O=C(Nc1ccc(Cl)cc1)C1=C(O)CC(c2ccc(C(F)(F)F)cc2)OC1=O", "note": "(centres unmarked) [1-5]", "values": [{"measurement": "rating of assessment (corrected mortality) against Plutella xylostella", "setting": "Plutella xylostella", "value": "D or higher"}]}
{"smiles": "O=C(Nc1ccccc1)C1=C(O)CC(c2ccc(C(F)(F)F)cc2)OC1=O", "note": "(centres unmarked) [1-6]", "values": [{"measurement": "rating of assessment (corrected mortality) against Plutella xylostella", "setting": "Plutella xylostella", "value": "D or higher"}]}
{"smiles": "O=C(Nc1cccs1)C1=C(O)CC(c2ccc(C(F)(F)F)cc2)OC1=O", "note": "(centres unmarked) [1-7]", "values": [{"measurement": "rating of assessment (corrected mortality) against Plutella xylostella", "setting": "Plutella xylostella", "value": "D or higher"}]}
{"smiles": "O=C(Nc1ccc(Oc2ccccc2)cc1)C1=C(O)CC(c2ccc(C(F)(F)F)cc2)OC1=O", "note": "(centres unmarked) [1-14]", "values": [{"measurement": "rating of assessment (corrected mortality) against Plutella xylostella", "setting": "Plutella xylostella", "value": "D or higher"}]}
{"smiles": "O=C(Nc1ccc2c(c1)OCO2)C1=C(O)CC(c2ccc(C(F)(F)F)cc2)OC1=O", "note": "(centres unmarked) [1-15]", "values": [{"measurement": "rating of assessment (corrected mortality) against Plutella xylostella", "setting": "Plutella xylostella", "value": "D or higher"}]}
{"smiles": "O=C(Nc1ccc(F)cc1)C1=C(O)CC(c2ccc(C(F)(F)F)nc2)OC1=O", "note": "(centres unmarked) [1-21]", "values": [{"measurement": "rating of assessment (corrected mortality) against Plutella xylostella", "setting": "Plutella xylostella", "value": "D or higher"}, {"measurement": "rating of assessment (corrected mortality) against Laodelphax striatellus", "setting": "Laodelphax striatellus", "value": "D or higher"}, {"measurement": "rating of assessment (corrected mortality) against Frankliniella occidentalis", "setting": "[1]", "value": "D or higher"}]}
{"smiles": "CC1(C)C(O)=C(C(=O)Nc2ccc(F)cc2)C(=O)OC1c1ccc(C(F)(F)F)cc1", "note": "(centres unmarked) [1-22]", "values": [{"measurement": "rating of assessment (corrected mortality) against Plutella xylostella", "setting": "Plutella xylostella", "value": "D or higher"}]}
{"smiles": "COc1ccc(NC(=S)C2=C(O)CC(c3ccc(C(F)(F)F)cc3)OC2=O)cc1", "note": "(centres unmarked) [1-31]", "values": [{"measurement": "rating of assessment (corrected mortality) against Plutella xylostella", "setting": "Plutella xylostella", "value": "D or higher"}]}
{"smiles": "CC1(C)C(O)=C(C(=S)Nc2ccc(F)cc2)C(=O)OC1c1ccc(C(F)(F)F)cc1", "note": "(centres unmarked) [1-67]", "values": [{"measurement": "rating of assessment (corrected mortality) against Plutella xylostella", "setting": "Plutella xylostella", "value": "D or higher"}]}
{"smiles": "O=C1OC(c2ccc(C(F)(F)F)cc2)C2(CCCCC2)C(O)=C1C(=S)Nc1ccc(F)cc1", "note": "(centres unmarked) [1-68, N-(4-fluorophenyl)-5-hydroxy-3-oxo-1-(4-(trifluoromethyl)phenyl)-2-oxaspiro[5.5]undec-4-en-4-carbothioamide]", "values": [{"measurement": "inhibition at 10 µM", "setting": "Dirofilaria immitis", "value": "≥ 50", "unit": "%"}]}
{"smiles": "CC1(C)C(O)=C(C(=S)Nc2ccc(F)cn2)C(=O)OC1c1ccc(C(F)(F)F)cc1", "note": "(centres unmarked) [1-71]", "values": [{"measurement": "rating of assessment (corrected mortality) against Laodelphax striatellus", "setting": "Laodelphax striatellus", "value": "D or higher"}]}
{"smiles": "Cc1ccc(NC(=O)C2=C(O)CC(c3ccc(C(F)(F)F)cc3)OC2=O)cc1", "note": "(centres unmarked) [1-73]", "values": [{"measurement": "rating of assessment (corrected mortality) against Plutella xylostella", "setting": "Plutella xylostella", "value": "D or higher"}]}
{"smiles": "O=C(NC1CC1)C1=C(O)CC(c2ccc(C(F)(F)F)cc2)OC1=O", "note": "(centres unmarked) [1-74]", "values": [{"measurement": "rating of assessment (corrected mortality) against Plutella xylostella", "setting": "Plutella xylostella", "value": "D or higher"}]}
{"smiles": "O=C(Nc1ccc(F)cc1)C1=C(O)CC(c2ccc(Cl)nc2)OC1=O", "note": "(centres unmarked) [1-75]", "values": [{"measurement": "rating of assessment (corrected mortality) against Plutella xylostella", "setting": "Plutella xylostella", "value": "D or higher"}, {"measurement": "rating of assessment (corrected mortality) against Laodelphax striatellus", "setting": "Laodelphax striatellus", "value": "D or higher"}, {"measurement": "rating of assessment (corrected mortality) against Frankliniella occidentalis", "setting": "[1]", "value": "D or higher"}]}
{"smiles": "O=C(Nc1ccc(F)cn1)C1=C(O)CC(c2ccc(C(F)(F)F)nc2)OC1=O", "note": "(centres unmarked) [1-76]", "values": [{"measurement": "rating of assessment (corrected mortality) against Plutella xylostella", "setting": "Plutella xylostella", "value": "D or higher"}, {"measurement": "rating of assessment (corrected mortality) against Laodelphax striatellus", "setting": "Laodelphax striatellus", "value": "D or higher"}]}
{"smiles": "O=C(Nc1ccc(F)cn1)C1=C(O)CC(c2ccc(C(F)(F)F)cc2)OC1=O", "note": "(centres unmarked) [1-77]", "values": [{"measurement": "rating of assessment (corrected mortality) against Plutella xylostella", "setting": "Plutella xylostella", "value": "D or higher"}, {"measurement": "rating of assessment (corrected mortality) against Frankliniella occidentalis", "setting": "[1]", "value": "D or higher"}]}
{"smiles": "O=C(Nc1ccc(F)cc1)C1=C(O)CC(c2cc(-c3ccccc3)no2)OC1=O", "note": "(centres unmarked) [1-78]", "values": [{"measurement": "rating of assessment (corrected mortality) against Plutella xylostella", "setting": "Plutella xylostella", "value": "D or higher"}]}
{"smiles": "CSc1ccc(C2CC(O)=C(C(=O)Nc3ccc(F)cc3)C(=O)O2)cc1", "note": "(centres unmarked) [1-83]", "values": [{"measurement": "rating of assessment (corrected mortality) against Plutella xylostella", "setting": "Plutella xylostella", "value": "D or higher"}]}
{"smiles": "C[S+]([O-])c1ccc(C2CC(O)=C(C(=O)Nc3ccc(F)cc3)C(=O)O2)cc1", "note": "(centres unmarked) [1-84]", "values": [{"measurement": "rating of assessment (corrected mortality) against Plutella xylostella", "setting": "Plutella xylostella", "value": "D or higher"}]}
{"smiles": "CS(=O)(=O)c1ccc(C2CC(O)=C(C(=O)Nc3ccc(F)cc3)C(=O)O2)cc1", "note": "(centres unmarked) [1-85]", "values": [{"measurement": "rating of assessment (corrected mortality) against Plutella xylostella", "setting": "Plutella xylostella", "value": "D or higher"}]}
{"smiles": "O=C(Nc1ccc(F)cc1)C1=C(O)CC(c2ccc(OC(F)(F)F)cc2)OC1=O", "note": "(centres unmarked) [1-86]", "values": [{"measurement": "rating of assessment (corrected mortality) against Plutella xylostella", "setting": "Plutella xylostella", "value": "D or higher"}]}
{"smiles": "N#Cc1ccc(C2CC(O)=C(C(=O)Nc3ccc(F)cc3)C(=O)O2)cc1", "note": "(centres unmarked) [1-97]", "values": [{"measurement": "rating of assessment (corrected mortality) against Plutella xylostella", "setting": "Plutella xylostella", "value": "D or higher"}]}
{"smiles": "O=C(Nc1ccc(F)cc1)C1=C(O)CC(c2ccc3c(c2)OCO3)OC1=O", "note": "(centres unmarked) [1-103]", "values": [{"measurement": "rating of assessment (corrected mortality) against Plutella xylostella", "setting": "Plutella xylostella", "value": "D or higher"}]}
{"smiles": "O=C(Nc1ccc(F)cc1)C1=C(O)CC(c2ccc([N+](=O)[O-])cc2)OC1=O", "note": "(centres unmarked) [1-107]", "values": [{"measurement": "rating of assessment (corrected mortality) against Plutella xylostella", "setting": "Plutella xylostella", "value": "D or higher"}]}
{"smiles": "COc1ccccc1C1CC(O)=C(C(=O)Nc2ccc(F)cc2)C(=O)O1", "note": "(centres unmarked) [1-131]", "values": [{"measurement": "rating of assessment (corrected mortality) against Plutella xylostella", "setting": "Plutella xylostella", "value": "D or higher"}]}
{"smiles": "COc1ccccc1C1CC(O)=C(C(=O)Nc2ccc(SC(F)(F)F)cc2)C(=O)O1", "note": "(centres unmarked) [1-132]", "values": [{"measurement": "rating of assessment (corrected mortality) against Plutella xylostella", "setting": "Plutella xylostella", "value": "D or higher"}]}
{"smiles": "O=C(Nc1ccc(F)cc1)C1=C(O)CC(c2ccc(SC(F)(F)F)cc2)OC1=O", "note": "(centres unmarked) [1-135]", "values": [{"measurement": "rating of assessment (corrected mortality) against Plutella xylostella", "setting": "Plutella xylostella", "value": "D or higher"}]}
